Measured values from patent US20150328109A1, “DERMAL COMPOSITIONS CONTAINING UNNATURAL HYGROSCOPIC AMINO ACIDS” (MEDPHARM LIMITED, priority 2012, published 2015).
Several values for one entry are separate records, joined by “and”; a condition that tells them apart may be missing. Equal entries are not always repeated.

Columns and labels:
[1] = Deliquescence relative humidity (DRH) of a saturated solution in a sealed vessel at 32° C.; assay type: physicochemical; settings: saturated solution in water (1 mL), 24 hours, mass used printed beside the name
Procedure: This experiment was to measure the deliquescence relative humidity (DRH) caused by a saturated amino acid solution in a sealed vessel at 32° C.; the lower the DRH, the greater the water holding capacity of the solution measured. Deliquescence relative humidity is the relative humidity at which the compound deliquesces, i.e. the relative humidity in which the compound absorbs so much water that it dissolves within the absorbed water.
The apparatus is maintained at 32° C. The temperature of 32° C. was chosen for being the temperature of outer stratum corneum. As the amino acids are to eventually be delivered to the outer layer of the skin, then the water holding capacity of these compounds at 32° C. is important.
The saturated solution is prepared as above by adding the amino acid to water (1 mL, 32° C.), whilst swirling. The total amino acid is weighed before adding to the water and the remaining amino acid so that the mass of compound used can be determined. The saturated solution (1 mL, 32° C.) is then transferred into the vial, again because of partial molar volume causing a change in volume by the addition of the amino acid to the water.
The temperature and % RH (% Relative Humidity) shown on the thermo-hygrometer are recorded every 30 minutes until the % RH remains constant. The temperature confirms that the temperature experienced by the sample is 32° C.

[2] = tested on: GM-CSF; test: GM-CSF release from in vitro psoriatic tissue model (ELISA); assay type: cell-based, human; settings: over 6 days; 10% w/v N-H-S, 1% w/v N-H-G, 10% w/v L-h-S, 10% w/v combination 1:1:1 in water
Excerpt: (§1) A human cell based in vitro psoriatic tissue model consisting of psoriatic fibroblasts and normal keratinocytes was used in this study. […] GM-CSF is a key activator of the innate immune system involved in chronic inflammatory and autoimmune diseases including psoriasis (Löntz et al 1995), where macrophages, granulocytes, neutrophils, eosinophils and dendritic cells can contribute to tissue damage and disease progression (Krinner 2007). GM-CSF stimulates stem cells to produce granulocytes and other macrophages and subsequently activates these differentiated immune cells. GM-CSF has also been identified as an inflammatory mediator in autoimmune disorders with elevated levels of GM-CSF mRNA or protein being measured in a variety of inflammatory sites including in allergic and psoriatic patients, arthritic and asthmatic patients (Plater-Zyberk et al 2008). Numerous in vivo studies over the past few years have shown that blockade of GM-CSF via neutralising antibodies can prevent or even cure pro-inflammatory diseases in various models of inflammation including arthritis experimental autoimmune encephalitis, psoriasis (Schon et al 2000), and lung disease (Plater-Zyberk et al 2008). […] Due to the importance of GM-CSF in psoriasis it was selected for analysis in this study.
In this investigation two types of RHE tissues were used, which were healthy and psoriatic tissue sourced from the MatTek Corporation (Ashland, Mass.). For simplicity the protocol below refers to both tissue types as RHE tissues and all media as assay medium as both tissues were treated in the same manner. The only exception was that two different types of media were required for the different types of tissue (healthy and psoriatic tissues). […]

[3] = tested on: Psoriatic tissues; test: Tissue viability (MTT) of psoriatic tissue during 6 day treatment; assay type: cell-based, human; settings: for Psoriatic tissues as a percentage of untreated control (%): 10% w/v, n = 1; for irritancy conclusion from tissue viability over 6 days: 6 day dosing period
Excerpt: as §1
In this investigation two types of RHE tissues were used, which were healthy and psoriatic tissue sourced from the MatTek Corporation (Ashland, Mass.). For simplicity the protocol below refers to both tissue types as RHE tissues and all media as assay medium as both tissues were treated in the same manner. The only exception was that two different types of media were required for the different types of tissue (healthy and psoriatic tissues).
• (i) At the end of the equilibration period, the media for each well was removed then the tissues were lifted and placed on culture stands and fresh pre-warmed (37° C.) assay medium (5 mL) was added to the well. • (ii) Using a positive displacement pipette, the test solutions 10% w/v, N-H-S(N-hydroxyserine) in water, […], N-H-G (N-hydroxyglycine) in water, 10% w/v, L-h-S (L-homoserine) in water and 10% w/v, combination 1:1:1 (N-H-S:N-H-G: L-h-S) in water were dispensed (50±0.5 μL) onto the top of the RHE tissue. The solutions or controls were then distributed over the surface of the RHE tissues using a sterile glass rod. • (iii) The lid was placed on the well plate containing the RHE tissue and the tissues were returned to the incubator (37° C., 5% CO2) 48 h between applications.
• (i) Every 48 h culture media for the RHE tissues was removed from the 6 well plates and transferred into tubes stored (−20° C.) for cytokine analysis. • (ii) Fresh pre-warmed (37° C.) assay medium (5 mL) was added to each tissue using an automatic pipette. • (iii) From each treatment 1 tissue was removed for viability assessment. • (iv) The RHE tissues were subsequently rinsed with 100 μL of PBS to remove the residual solution from the epidermal surface. • (v) Using a positive displacement pipette, the solutions 10% w/v, N-H-S in water, 1% w/v, N-H-G in water, 10% w/v, L-h-S in water and 10% w/v, combination 1:1:1 (N-H-S:N-H-G:L-h-S) were dispensed (50±0.5 μL) onto the top of the RHE tissue. The solutions or controls were then distributed over the surface of the RHE tissues using a sterile glass rod. • (vi) The lid was placed on the well plate containing the RHE tissue and the tissues were returned to the incubator (37° C., 5% CO2) 48 h between applications at t=0, 48 and 96 h. […]

DRH [1] | SMILES | release of GM-CSF from psoriasis tissues compared to untreated psoriasis tissues [2] | Psoriatic tissues as a percentage of untreated control (%) ([3]; 2 days in treatments) | Psoriatic tissues as a percentage of untreated control (%) ([3]; 4 days in treatments) | irritancy conclusion from tissue viability over 6 days [3] | irritancy conclusion from tissue viability over 6 days ([3]; listed as N-H-S) | Psoriatic tissues as a percentage of untreated control (%) ([3]; 6 days in treatments) | irritancy conclusion from tissue viability over 6 days ([3]; listed as N-H-G)
68.3% | O=C(O)[C@H](CO)NO [N-hydroxyserine] | reduced | 94.0 | 75.3 | non-irritant | non-irritating | 96.0 | 
68.1% | O=C(O)CNO [N-hydroxyglycine, N-Hydroxyglycine] | reduced | 87.1 | 77.6 | non-irritants |  | 89.6 | non-irritating
71.4% and 71.37% | N[C@@H](CCO)C(=O)O [L-homoserine] | reduced |  |  | non-irritants |  |  | 
